Measurements: patent publication US6440899B1, “Cyclohexenonedioxothiochromanoyl derivatives” (BASF Aktiengesellschaft, priority 1998, dated 2002)

Tests used:
Experiment in all cases: greenhouse post-emergence herbicidal test
Assay type in all cases: in vivo
Details in all cases: applied post-emergence, rates of application of 0.5 and 0.25 kg/ha, respectively
[1] = test system: Sinapis alba
Description: (§1) The seeds of the test plants were sown separately for each species. For the post-emergence treatment, the test plants were first grown to a height of 3 to 15 cm, depending on the plant habit, and only then treated with the active compounds which had been suspended or emulsified in water. For this purpose, the test plants were either sown directly and grown in the same containers, or they were first grown separately as seedlings and transplanted into the test containers a few days prior to treatment. The rate of application for the post-emergence treatment was 0.5 or 0.25 kg/ha of a.s. (active substance). Depending on the species, the plants were kept at 10-25° C. or 20-35° C. The test period extended over 2 to 4 weeks. During this time, the plants were tended, and their response to the individual treatments was evaluated. Evaluation was carried out using a scale from 0 to 100. 100 means no emergence of the plants, or complete destruction of at least the aerial parts, and 0 means no damage, or normal course of growth. The plants used in the greenhouse experiments belonged to the following species: [table]

[2] = test system: Echinochloa crus-galli
Description: as §1

[3] = test system: Solanum nigrum
Description: as §1

[4] = test system: Setaria faberi
Description: as §1

[5] = test system: Setaria viridis
Description: as §1

[6] = test system: Chenopodium album
Description: as §1

[7] = test system: Galium aparine
Description: as §1

Measured: herbicidal activity

Cc1c(C(=O)C2=C(Cl)C(C)(C)C(=O)C(C)(C)C2=O)ccc2c1S(=O)(=O)CCS2(=O)=O [Compound 4.1, 1-Chloro-2-[(8-methyl-2,3-dihydro-1,1,4,4-tetraoxobenz[1,4]dithiyn-7-yl)carbonyl]-4,4,6,6-tetramethyl-1-cyclohexene-3,5-dione]
very good activity: all assays above
